Reference: ChEMBL document CHEMBL1153701, “Synthesis and evaluation of antiallodynic and anticonvulsant activity of novel amide and urea derivatives of valproic acid analogues” (2009)
Activity calls are given as the source filed them. The calls are words filed in the database; no cut-off is given here.

What was measured:
[1] = tested on: Mus musculus; experiment: Neurotoxicity in CF1 mouse assessed as protection against motor impairment at 300 mg/kg, ip after 4 hrs by rotarod test; type: functional, organism-based; design: dose 300 mg/kg
[2] = tested on: Mus musculus; experiment: Antiepileptic activity in CF1 mouse assessed as inhibition of maximal electroshock-induced seizures at 300 mg/kg, ip after 0.5 hrs; type: functional, organism-based; design: dose 300 mg/kg
[3] = tested on: Mus musculus; experiment: Antiepileptic activity in CF1 mouse assessed as inhibition of subcutaneous pentylenetetrazole-induced seizures at 100 mg/kg, ip after 4 hrs; type: functional, organism-based; design: dose 100 mg/kg
[4] = tested on: Rattus norvegicus; experiment: Anticonvulsant activity in ip dosed albino Sprague-Dawley rat assessed as protection against pilocarpine-induced seizure treated after 30 mins of pilcarpine challenge; type: functional; conditions: 0.5 h
[5] = tested on: Mus musculus; experiment: Antiepileptic activity in CF1 mouse assessed as inhibition of maximal electroshock-induced seizures at 300 mg/kg, ip after 4 hrs; type: functional, organism-based; design: dose 300 mg/kg
[6] = tested on: Mus musculus; experiment: Antiepileptic activity in CF1 mouse assessed as inhibition of maximal electroshock-induced seizures at 30 mg/kg, ip after 0.5 hrs; type: functional, organism-based; design: dose 30 mg/kg
[7] = tested on: Rattus norvegicus; experiment: Antiallodynic activity in ip dosed rat assessed as protection against spinal nerve ligation-induced neuropathic pain; type: functional
[8] = tested on: Mus musculus; experiment: Antiepileptic activity in CF1 mouse assessed as inhibition of subcutaneous pentylenetetrazole-induced seizures at 100 mg/kg, ip after 0.5 hrs; type: functional, organism-based; design: dose 100 mg/kg
[9] = tested on: Mus musculus; experiment: Antiepileptic activity in CF1 mouse assessed as inhibition of subcutaneous pentylenetetrazole-induced seizures at 300 mg/kg, ip after 4 hrs; type: functional, organism-based; design: dose 300 mg/kg
[10] = species on record: Rattus norvegicus; experiment: Ratio of ED50 for antiallodynic activity in rat assessed as protection against spinal nerve ligation-induced neuropathic pain to ED50 for antiepileptic activity in rat by maximal electroshock-induced seizures assay; type: functional
[11] = tested on: Rattus norvegicus; experiment: Anticonvulsant activity in albino Sprague-Dawley rat assessed as protection against pilocarpine-induced seizure at 37.5 mg/kg, ip; type: functional, organism-based; design: dose 37.5 mg/kg
[12] = tested on: Mus musculus; experiment: Antiepileptic activity in CF1 mouse assessed as inhibition of subcutaneous pentylenetetrazole-induced seizures at 30 mg/kg, ip after 0.5 hrs; type: functional, organism-based; design: dose 30 mg/kg
[13] = tested on: Mus musculus; experiment: Antiepileptic activity in CF1 mouse assessed as inhibition of subcutaneous pentylenetetrazole-induced seizures at 300 mg/kg, ip after 0.5 hrs; type: functional, organism-based; design: dose 300 mg/kg
[14] = tested on: Mus musculus; experiment: Neurotoxicity in CF1 mouse assessed as protection against motor impairment at 100 mg/kg, ip after 0.5 hrs by rotarod test; type: functional, organism-based; design: dose 100 mg/kg
[15] = tested on: Rattus norvegicus; experiment: Anticonvulsant activity in albino Sprague-Dawley rat assessed as protection against pilocarpine-induced seizure at 75 mg/kg, ip; type: functional, organism-based; design: dose 75 mg/kg
[16] = tested on: Mus musculus; experiment: Antiepileptic activity in CF1 mouse assessed as inhibition of maximal electroshock-induced seizures at 100 mg/kg, ip after 4 hrs; type: functional, organism-based; design: dose 100 mg/kg
[17] = tested on: Mus musculus; experiment: Antiepileptic activity in CF1 mouse assessed as inhibition of maximal electroshock-induced seizures at 100 mg/kg, ip after 0.5 hrs; type: functional, organism-based; design: dose 100 mg/kg
[18] = tested on: Mus musculus; experiment: Antiepileptic activity in CF1 mouse assessed as inhibition of subcutaneous pentylenetetrazole-induced seizures at 30 mg/kg, ip after 4 hrs; type: functional, organism-based; design: dose 30 mg/kg
[19] = tested on: Mus musculus; experiment: Neurotoxicity in CF1 mouse assessed as protection against motor impairment at 100 mg/kg, ip after 4 hrs by rotarod test; type: functional, organism-based; design: dose 100 mg/kg
[20] = tested on: Mus musculus; experiment: Neurotoxicity in CF1 mouse assessed as protection against motor impairment at 300 mg/kg, ip after 0.5 hrs by rotarod test; type: functional, organism-based; design: dose 300 mg/kg
[21] = tested on: Mus musculus; experiment: Neurotoxicity in CF1 mouse assessed as protection against motor impairment at 30 mg/kg, ip after 4 hrs by rotarod test; type: functional, organism-based; design: dose 30 mg/kg
[22] = tested on: Mus musculus; experiment: Antiepileptic activity in CF1 mouse assessed as inhibition of maximal electroshock-induced seizures at 30 mg/kg, ip after 4 hrs; type: functional, organism-based; design: dose 30 mg/kg
[23] = tested on: Mus musculus; experiment: Antiepileptic activity in ip dosed CF1 mouse assessed as inhibition of maximal electroshock-induced seizures; type: functional
[24] = tested on: Rattus norvegicus; experiment: Anticonvulsant activity in albino Sprague-Dawley rat assessed as protection against pilocarpine-induced seizure at 100 mg/kg, ip; type: functional, organism-based; design: dose 100 mg/kg
[25] = tested on: Mus musculus; experiment: Neurotoxicity in CF1 mouse assessed as protection against motor impairment at 30 mg/kg, ip after 0.5 hrs by rotarod test; type: functional, organism-based; design: dose 30 mg/kg
[26] = tested on: Rattus norvegicus; experiment: Antiallodynic activity in rat assessed as protection against spinal nerve ligation-induced neuropathic pain at 80 mg/kg, ip after 60 mins; type: functional, organism-based; design: dose 80 mg/kg
[27] = tested on: Rattus norvegicus; experiment: Antiallodynic activity in rat assessed as protection against spinal nerve ligation-induced neuropathic pain at 80 mg/kg, ip after 120 mins; type: functional, organism-based; design: dose 80 mg/kg
[28] = tested on: Rattus norvegicus; experiment: Antiallodynic activity in rat assessed as protection against spinal nerve ligation-induced neuropathic pain at 80 mg/kg, ip after 30 mins; type: functional, organism-based; design: dose 80 mg/kg
[29] = tested on: Rattus norvegicus; experiment: Anticonvulsant activity in albino Sprague-Dawley rat assessed as protection against pilocarpine-induced seizure at 200 mg/kg, ip treated after 30 mins of pilcarpine challenge; type: functional, organism-based; design: dose 200 mg/kg
[30] = tested on: Rattus norvegicus; experiment: Antiallodynic activity in rat assessed as protection against spinal nerve ligation-induced neuropathic pain at 80 mg/kg, ip after 180 mins; type: functional, organism-based; design: dose 80 mg/kg
[31] = tested on: Mus musculus; experiment: Antiepileptic activity in ip dosed CF1 mouse assessed as inhibition of subcutaneous pentylenetetrazole-induced seizures; type: functional

| Compound | Activity [1] | Activity [2] | Activity [3] | Activity [5] | Activity [6] | ED50 [7] | Activity [8] | Activity [9] | ratio [10] | Activity [12] | Activity [13] | Activity [14] | Activity [16] | Activity [17] | Activity [18] | Activity [19] | Activity [20] | Activity [21] | Activity [22] | Activity [25] | also measured |
| --- | --- | --- | --- | --- | --- | --- | --- | --- | --- | --- | --- | --- | --- | --- | --- | --- | --- | --- | --- | --- | --- |
| CCC(C)C(CC)C(=O)NC(N)=O (stereo not given) [CAPURIDE] | Active | Active | inactive | Active | inactive | 49 mg/kg | Active | Active | 0.49 | inactive | Active | Active | inactive | Active | inactive | inactive | Active | inactive | inactive | – | ED50 [4]: 23 mg/kg; Activity [11]: Active; Activity [15]: Active |
| CC(C)(C)CC(=O)NC(N)=O | inactive | Active | inactive | inactive | inactive | 74 mg/kg | – | inactive | 0.86 | inactive | Active | – | inactive | inactive | inactive | inactive | Active | inactive | inactive | inactive | ED50 [23]: 64 mg/kg; Activity [24]: Active |
| CCCC(C(=O)NC(N)=O)C(C)C (stereo not given) | inactive | inactive | inactive | Active | inactive | – | Active | inactive | – | inactive | Active | – | inactive | inactive | inactive | – | – | – | inactive | – | Activity [26]: inactive; Activity [27]: inactive; Activity [28]: inactive; Activity [29]: Active; Activity [30]: inactive |
| CCCCC(CC)C(N)=O (stereo not given) | – | – | inactive | inactive | inactive | – | inactive | – | – | inactive | – | inactive | inactive | Active | inactive | inactive | Active | inactive | inactive | inactive | ED50 [31]: 103 mg/kg |
